These are literature values, as cited in publication PMC7388056 (Biomacromolecules, 2020).

The subject of the data set is integrins.

Consider arginine–glycine–aspartic acid [RGD], for which the “effectiveness relative to parent proteins, in words” value is on record as “orders-of-magnitude less effective than its parent proteins”.
